Oligonucleotides are written 5' to 3', each unit as a sugar letter and its base; * is a phosphorothioate linkage, no mark a phosphodiester; rarer units and linkages stand in square brackets, end groups in braces. Plain capitals give the bases only. d = 2'-deoxy (DNA)

Series [1] deals with HSV-1 (17syn+ IE175-YFP). The series can be described thus: Single-round viral titering of HSV-1 in ARPE-19 cells (TCID50). Format: cell-based. From the text:
(§1) FIG. 7: Feedback circuit disruption interferes with viral replication even at high MOI and limits the evolution of resistance. (a) Flow cytometry of ARPE-19 cells nucleofected with the 28 bp dsDNA that titrates IE86 (C-DOT^C) or scrambled dsDNA sequence (C-DOT^Scram) and infected with a clinically derived CMV (TB40E) encoding an IE86-YFP (MOI=0.1) then analyzed at 2 days post infection (dpi). (b) Flow cytometry of ARPE-19 cells nucleofected with a 29 bp DNA to titrate IE175 (C-DOT^H) or scrambled dsDNA sequence (C-DOT^Scram) and infected with HSV-1 (17syn+strain) encoding an IE175-YFP (MOI=0.1) then analyzed at 2 dpi. (c) Single-round viral titering of CMV in the presence of 100 μM GCV, PBS, or 25 μM C-DOT^C (or C-DOT^Scram) at 4-days post infection under different initial MOIs. (d) Single-round viral titering of HSV-1 in presence of 100 μM ACV or 25 μM C-DOT^H (or C-DOT^Scram) at 4-days post infection under different HSV-1 MOIS. (e) Schematic of the continuous-culture experiment; ARPE-19 cells (+/−C-DOT) were infected with CMV or HSV-1 (0.1 MOI) and at 4-day post infection, supernatant was collected and was used to infect naïve ARPE-19 cells +/−C-DOT until day 60. (f) Continuous culture titers for CMV (TB40E-IE86-YFP) in the presence of C-DOT^C (red) or mock treatment (black). […]

The subject of series [2] is CMV (TB40E-IE86-YFP). In words: Single-round viral titering of CMV in ARPE-19 cells (TCID50). Format: cell-based.
Description: as §1

The test system of series [3] is MCMV. The series can be described thus: MCMV replication in NIH 3T3 mouse fibroblast cells (TCID50). The class given is cell-based, murine CMV. Conditions: NIH 3T3, MOI=0.1, 4 days post infection. How it is done:
(§2) FIG. 14: C-DOTs can be engineered to interfere with a broad range of species-specific herpesviruses including drug-resistant strains. (a) Sequence homology for the crs of human CMV, rhesus CMV (RhCMV), and murine CMV (MCMV). Sequence homology and divergence are represented. […] NIH 3T3 mouse fibroblast cells were nucleofected with either 28 bp C-DOT^MCMY, or C-DOT^Scram, or mock nucleofected 24 hours prior to MCMV infection at MOI=0.1. 4 days post infection, virus titers were assayed by TCID50. […] (Upper) Fluorescent micrographs, 4-day post nucleofection, of Telo-RF cells nucleofected with either a 28 bp C-DOT^RhCMV, or a C-DOT^Scram, or mock nucleofected and then infected with RhCMV (RhCMV 68.1 GFP) at MOI=0.1. (Lower) Virus titers assayed by TCID-50 at 4 days post infection. […] MRC-5 cells were nucleofected with C-DOT^C or C-DOT^Scram then infected 24-hour later with either the parent CMV AD169 (control) or GCV^R or FOS^R strains (CMV GDGrK17, CMV GDGrP53, CMV 759rD100-1, CMV PFArD100). Virus titers were assayed by TCID-50 at 4 days post infection.

Series [4] concerns RhCMV 68.1 GFP. The series can be described thus: RhCMV replication in Telo-RF cells (TCID-50). The settings on record: MOI=0.1, 4 days post infection. The class given is cell-based, rhesus CMV. As for the experimental part: as §2
Series [5] deals with HSV-1. The series can be described thus: Cell-death pathway analysis in the context of HSV-1 infection. Format: cell-based. An excerpt: (§3) FIG. 10 provides a cell-death pathway analysis (pharmacological inhibitors). The mechanism of C-DOT-induced cell death (in the context of the virus infection) was identified using three separate approaches: (i) RNAseq: to identify misregulated expression patterns and the cell-death pathways these group into (ii) Antibody staining: for specific cell-death pathway markers (iii) Pharmacological inhibitors: of cell-death pathways to test which mitigate C-DOT-induced death. […] C-DOT alone caused cell death in CMV and HSV-1.

Series [6] relates to CMV. The series can be described thus: Cell-death pathway analysis in the context of CMV infection. The class given is cell-based.
Description: as §3

Series [7] relates to CMV (TB40E-IE86-YFP or AD169). In words: C-DOT antiviral effect under high and low cGAS-STING expression (MRC-5, ARPE-19). The settings on record: MRC-5 (high) and ARPE-19 (low cGAS-STING activity), 4 days post infection. The class given is cell-based. As for the experimental part: However, to verify that C-DOT activity is independent of cGAS-STING, C-DOTs were tested under conditions of high and low cGAS-STING expression and observed little difference in C-DOT antiviral effects and no effects for C-DOT^Scram in either setting (FIG. 15b).
Total RNA was extracted from cells and corresponding cDNA was quantified by qPCR using sequence specific primers for TLR9 (see Extended Data Table 1 for sequences). […] ARPE-19 (low cGAS-STING activity) and MRC-5 cells (high cGAS-STING activity) were nucleofected with C-DOTE or mock and infected with TB40E-IE86-YFP or AD169, respectively. Virus titers were assayed by TCID-50 at 4 days post infection. (c)C-DOT^C decreases CMV titers below detection by day 60 in the continuous culture setting. CMV titers from the continuous culture experiment followed out to day 60. ARPE-19 cells (+/−25 μM C-DOT) were infected with CMV (TB40E-IE86-YFP; MOI=0.1). (d) CMV and HSV-1 rapidly acquire resistance to approved antivirals (fomivirsen and acyclovir). Viral titers from the continuous culture experiment in the presence or absence of fomivirsen. Mock- or fomivirsen-nucleofected ARPE-19 cells were infected with CMV (TB40E-IE86-YFP; MOI=0.1); at 4 days post infection, supernatants were transferred to infect new naïve ARPE-19 cells (+/−fomivirsen) and transfers repeated every 4 days until day 44. […]

As to `Nc1nc2c(ncn2COCCO)c(=O)[nH]1` [ACV, acyclovir], the “reduction in viral replication” value in series [1] (HSV-1, MOI=2, 100 μM ACV or 25 μM C-DOT^H, 4 days post infection) is given as 35-70 ×. Take `Nc1nc(O)c2ncn(COC(CO)CO)c2n1` [GCV, ganciclovir]: the “reduction in viral replication” value in series [2] (MOI=2, 100 μM GCV or 25 μM C-DOT^C, 4 days post infection) is recorded as 35-70 ×.

“C-DOT^MCMV: 28 bp dsDNA with murine CMV crs; Fw G*ACAGACCA*GCGTCGG*TACCGTACACG*A (SEQ ID NO: 9) (sense dG*dAdCdAdGdAdCdCdA*dGdCdGdTdCdGdG*dTdAdCdCdGdTdAdCdAdCdG*dA; antisense TCGTGTACGGTACCGACGCTGGTCTGTC; antisense: DNA, backbone not given here)”: the “effect on MCMV replication” value in series [3] is “interferes with MCMV replication”. As for “C-DOT^RhCMV: 28 bp dsDNA with rhesus CMV crs; Fw G*ACAGATCGT*TTAGGGAAC*CGTACACG*A (SEQ ID NO: 8) (sense dG*dAdCdAdGdAdTdCdGdT*dTdTdAdGdGdGdAdAdC*dCdGdTdAdCdAdCdG*dA; antisense TCGTGTACGGTTCCCTAAACGATCTGTC; antisense: DNA, backbone not given here)”, the “effect on RhCMV replication” value in series [4] was “downregulates RhCMV replication”.

In the case of “C-DOT^Scram: scrambled dsDNA sequence, phosphorothioated, negative control; Fw A*TACCGCGTAA*CCAGAGGT*ATATAGGT*C (SEQ ID NO: 40) (sense ATACCGCGTAACCAGAGGTATATAGGTC; antisense GACCTATATACCTCTGGTTACGCGGTAT; phosphorothioate; (1)..(2) A Phosphorothioate bond is present between the nucleotides at positions 1 and 2; (11)..(12) A Phosphorothioate bond is present between the nucleotides at positions 11 and 12; (19)..(20) A Phosphorothioate bond is present between the nucleotides at positions 19 and 20; (27)..(28) A Phosphorothioate bond is present between the nucleotides at positions 27 and 28; (1)..(2) A Phosphorothioate bond is present between the nucleotides at positions 1 and 2.; (9)..(10) A Phosphorothioate bond is present between the nucleotides at positions 9 and 10.; (17)..(18) A …)”, the cell death result in series [5] and in series [6] was “minimal cell death” each time. The antiviral effects result in series [1] (HSV-1) and in series [2] was “did not exhibit antiviral effects” each time. Besides, in series [7], the “antiviral effects under high and low cGAS-STING expression” value is “no effects”.

Values taken from patent publication US12606829B2, “Compositions for herpesvirus transcriptional feedback circuit disruption and uses thereof” (priority 2018, dated 2026).
